From US8263598B2, “Substituted sulfonamide compounds” (Gruenenthal GmbH, priority 2008, dated 2012)

Key:
[1] = target: T1, human B1R receptor (hB1R) (Homo sapiens, UniProt P46663); experiment: FLIPR Ca2+ assay on human bradykinin 1 receptor (CHO K1 hB1R cells); type: cell-based; details: test substance 10 μM; CHO K1 cells with human B1R gene; agonist Lys-Des-Arg9-bradykinin 0.5 nM; compared to maximum achievable inhibition
T1 construct: host or cells: CHO K1 cells
T1 sequence (P46663 1-353): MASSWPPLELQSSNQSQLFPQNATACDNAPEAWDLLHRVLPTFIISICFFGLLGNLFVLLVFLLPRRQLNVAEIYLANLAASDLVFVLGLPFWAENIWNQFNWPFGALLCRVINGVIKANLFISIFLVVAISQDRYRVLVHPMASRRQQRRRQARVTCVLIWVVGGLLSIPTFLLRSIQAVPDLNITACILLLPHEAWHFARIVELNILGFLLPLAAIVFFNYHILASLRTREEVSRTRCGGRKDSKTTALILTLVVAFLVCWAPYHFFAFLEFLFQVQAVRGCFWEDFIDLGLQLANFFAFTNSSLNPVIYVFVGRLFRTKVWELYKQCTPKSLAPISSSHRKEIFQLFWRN
Procedure: (§1) The agonistic or antagonistic action of compounds can be quantified on the bradykinin 1 receptor (B1R) of humans and rats with ectopically expressing cell lines (CHO K1 cells) and with the aid of a Ca^2+-sensitive dye (Fluo-4) in the fluorescent imaging plate reader (FLIPR). The figure in percent activation refers to the Ca^2+ signal after addition of Lys-Des-Arg^9-bradykinin (0.5 nM) and Des-Arg^9-bradykinin (100 nM). Antagonists result in a suppression of the Ca^2+ inflow after the addition of the agonist. Percent inhibition values are given in comparison to the maximum achievable inhibition.
(§2) The agonistic or antagonistic action of substances can be determined on the bradykinin 1 receptor (B1R) of humans and rats by means of the following assay.
(§3) According to this assay the Ca^2+ inflow through the channel is quantified by means of a Ca^2+-sensitive dye (Fluo-4 type, Molecular Probes Europe BV, Leiden, Netherlands), in a Fluorescent Imaging Plate Reader (FLIPR, Molecular Devices, Sunnyvale, USA). Method:
(§4) Chinese hamster ovary cells (CHO K1 cells) are used, which are stably transfected with the human B1R gene (hB1R cells, Euroscreen s.a., Gosselies, Belgium), or with the B1R gene of rats (rB1R cells, Axxam, Milan, Italy). For functional investigations these cells are plated out on black 96-well plates with a clear floor (BD Biosciences, Heidelberg, Germany) in a density of 20,000/25,000 cells/well. The cells are incubated overnight with 10 vol. % FBS (foetal bovine serum, Gibco Invitrogen GmbH, Karlsruhe, Germany) at 37° C. and 5% CO2 in a culture medium (hB1R cells: Nutrient Mixture Ham's F12, Gibco Invitrogen GmbH, Karlsruhe, Germany; rB1R cells: D-MEM/F12, Gibco Invitrogen GmbH, Karlsruhe, Germany). The following day the cells are charged for 60 minutes at 37° C. with 2.13 μM Fluo-4 (Molecular Probes Europe BV, Leiden, Netherlands) in HBSS buffer (Hank's buffered saline solution, Gibco Invitrogen GmbH, Karlsruhe, Germany) together with […] (Sigma-Aldrich, Taufkirchen, Germany) and 10 mM HEPES (Sigma-Aldrich, Taufkirchen, Germany).
(§5) The plates are then washed twice with HBSS buffer and HBSS buffer is added which additionally contains 0.1% BSA (bovine serum albumin; Sigma-Aldrich, Taufkirchen, Germany), 5.6 mM glucose and 0.05% gelatin (Merck KGaA, Darmstadt, Germany). After further incubation for 20 minutes at room temperature the plates are used for the Ca^2+ measurement in the FLIPR. The Ca^2+-dependent fluorescence is measured both before and after the addition of substances (λex=488 nm, λem=540 nm). The quantification is carried out by measuring the highest fluorescence intensity (FC, fluorescence counts) over time.
(§6) The FLIPR protocol consists of two substance additions. First of all test substances (10 μM) are pipetted onto the cells and the Ca^2+ inflow is compared with the control (hB1R: Lys-Des-Arg9-bradykinin 0.5 nM; rB1R: Des-Arg9-bradykinin 100 nM). This gives the result in percent activation referred to the Ca^2+ signal after addition of Lys-Des-Arg9-bradykinin (0.5 nM), bzw. Des-Arg9-bradykinin (100 nM). After 10 minutes' incubation 0.5 nM Lys-Des-Arg9-bradykinin (hB1R) and 100 nM Des-Arg^9-bradykinin (rB1R) are applied and the inflow of Ca^2+ is likewise determined. Antagonists lead to a suppression of the Ca^2+ inflow. The percent inhibition compared to the maximum achievable inhibition is calculated. The compounds show a good activity on both human and rat receptors.
(§7) The agonistic and antagonistic action of the compounds according to the invention on the bradykinin 1 receptor (B1R) of humans and rats were determined as described above. Antagonists lead to a suppression of the Ca^2+ inflow. The % inhibition compared to the maximum achievable inhibition was calculated.

[2] = target: T2, B1R receptor of rats (rB1R) (Rattus norvegicus, UniProt P97583); experiment: FLIPR Ca2+ assay on rat bradykinin 1 receptor (CHO K1 rB1R cells); type: cell-based; details: test substance 10 μM; CHO K1 cells with B1R gene of rats; agonist Des-Arg9-bradykinin 100 nM; compared to maximum achievable inhibition
T2 construct: host or cells: CHO K1 cells
T2 sequence (P97583 1-337): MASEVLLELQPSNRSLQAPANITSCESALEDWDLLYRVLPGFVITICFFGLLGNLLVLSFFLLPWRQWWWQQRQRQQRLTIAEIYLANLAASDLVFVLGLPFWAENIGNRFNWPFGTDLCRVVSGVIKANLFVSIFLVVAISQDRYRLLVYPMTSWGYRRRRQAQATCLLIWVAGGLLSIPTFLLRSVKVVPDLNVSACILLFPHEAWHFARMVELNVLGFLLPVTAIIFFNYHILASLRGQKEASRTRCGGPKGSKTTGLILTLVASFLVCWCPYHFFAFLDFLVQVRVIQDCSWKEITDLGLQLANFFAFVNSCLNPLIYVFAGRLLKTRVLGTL
Procedure: as §1, §2, §3, §4, §5, §6, §7

Structure (SMILES) | inhibition at 10 µM [1] [%] | inhibition at 10 µM [2] [%]
Cc1cc(C)c(S(=O)(=O)N(C)CCOCC(=O)N2CCn3cccc3C2c2cccc(C(F)(F)F)c2)c(C)c1 (stereo not shown) [Example 75, N,2,4,6-tetramethyl-N-(2-(2-oxo-2-(1-(3-(trifluoromethyl)phenyl)-3,4-dihydropyrrolo[1,2-a]pyrazin-2(1H)-yl)ethoxy)ethyl)benzenesulfonamide] | 63 | 48
COc1cc(C)c(S(=O)(=O)N(C)CCOCC(=O)N2CCn3c(nc(CN4CCCCC4)c3Cl)C2)c(C)c1 [Example 6, N-(2-(2-(3-chloro-2-(piperidin-1-ylmethyl)-5,6-dihydroimidazo[1,2-a]pyrazin-7(8H)-yl)-2-oxoethoxy)ethyl)-4-methoxy-N,2,6-trimethylbenzenesulfonamide] | 100 | 99
COc1ccc(C2c3cccn3CCN2C(=O)COCCN(C)S(=O)(=O)c2c(C)cc(OC)c(C)c2C)cc1 (stereo not shown) [Example 83, 4-methoxy-N-(2-(2-(1-(4-methoxyphenyl)-3,4-dihydropyrrolo[1,2-a]pyrazin-2(1H)-yl)-2-oxoethoxy)ethyl)-N,2,3,6-tetramethylbenzenesulfonamide] | 101 | 100
CCCCC1c2ccc(CN(C)C)n2CCN1C(=O)COCCN(Cc1ccccc1)S(=O)(=O)c1c(C)cc(OC)c(C)c1C (stereo not shown) [Example 120, N-benzyl-N-(2-(2-(1-butyl-6-((dimethylamino)methyl)-3,4-dihydropyrrolo[1,2-a]pyrazin-2(1H)-yl)-2-oxoethoxy)-ethyl)-4-methoxy-2,3,6-trimethyl-benzenesulfonamide] | 84 | 92
COc1cc(C)c(S(=O)(=O)N(C)CCOCC(=O)N2CCn3cccc3C2CCc2ccccc2)c(C)c1C (stereo not shown) [Example 148, 4-methoxy-N,2,3,6-tetramethyl-N-(2-(2-oxo-2-(1-phenethyl-3,4-dihydropyrrolo[1,2-a]pyrazin-2(1H)-yl)ethoxy)ethyl)benzenesulfonamide] | 100 | 98
COc1cc(C)c(S(=O)(=O)N(CCOCC(=O)N2CCn3c(CN(C)C)ccc3C2c2cccs2)CC(C)C)c(C)c1C (stereo not shown) [Example 98, N-(2-(2-(6-((dimethylamino)methyl)-1-(thiophen-2-yl)-3,4-dihydropyrrolo[1,2-a]pyrazin-2(1H)-yl)-2-oxoethoxy)ethyl)-N-isobutyl-4-methoxy-2,3,6-trimethyl-benzenesulfonamide] | 101 | 102
COc1cc(C)c(S(=O)(=O)N(C)CCOCC(=O)N2CCn3c(CN4CCCCC4)nnc3C2)c(C)c1 [Example 163, 4-Methoxy-N,2,6-trimethyl-N-(2-(2-oxo-2-(3-(piperidin-1-ylmethyl)-5,6-dihydro-[1,2,4]triazolo[4,3-a]pyrazin-7(8H)-yl)ethoxy)ethyl)benzenesulfonamide] |  | 103

More lines, now with the values ahead:

inhibition at 10 µM [1] [%] | inhibition at 10 µM [2] [%] | Structure (SMILES)
48 | 100 | COc1cc(C)c(S(=O)(=O)N(CCOCC(=O)N2CCn3cccc3C2c2cccs2)Cc2ccccc2)c(C)c1 (stereo not shown) [Example 50, N-benzyl-4-methoxy-2,6-dimethyl-N-(2-(2-oxo-2-(1-(thiophen-2-yl)-3,4-dihydropyrrolo[1,2-a]pyrazin-2(1H)-yl)ethoxy)ethyl)benzenesulfonamide]
41 | 86 | CCCC1c2cccn2CCN1C(=O)COCCN(Cc1ccccc1)S(=O)(=O)c1c(C)cc(OC)c(C)c1C (stereo not shown) [Example 123, N-benzyl-4-methoxy-2,3,6-trimethyl-N-(2-(2-oxo-2-(1-propyl-3,4-dihydropyrrolo[1,2-a]pyrazin-2(1H)-yl)ethoxy)ethyl)benzenesulfonamide]
95 | 98 | COc1c(C)cc(S(=O)(=O)N(C)CCOCC(=O)N2CCn3cccc3C2C(C)(C)C)c(C)c1C (stereo not shown) [Example 27, N-(2-(2-(1-tert-butyl-3,4-dihydropyrrolo[1,2-a]pyrazin-2(1H)-yl)-2-oxoethoxy)ethyl)-4-methoxy-N,2,3,5-tetramethylbenzenesulfonamide]
32 | 99 | COc1cc(C)c(S(=O)(=O)N(CCOCC(=O)N2CCn3cccc3C2c2cccc(F)c2)CC(C)C)c(C)c1C (stereo not shown) [Example 24, N-(2-(2-(1-(3-fluorophenyl)-3,4-dihydropyrrolo[1,2-a]pyrazin-2(1H)-yl)-2-oxoethoxy)ethyl)-N-isobutyl-4-methoxy-2,3,6-trimethylbenzenesulfonamide]
100 | 102 | COc1cc(C)c(S(=O)(=O)N(C)CCOCC(=O)N2CCn3cc(-c4ccncc4)nc3C2)c(C)c1 [Example 175, 4-Methoxy-N,2,6-trimethyl-N-(2-(2-oxo-2-(2-(pyridin-4-yl)-5,6-dihydroimidazo[1,2-a]pyrazin-7(8H)-yl)ethoxy)ethyl)benzenesulfonamide]
104 | 102 | COc1cc(C)c(S(=O)(=O)N(C)CCOCC(=O)N2CCn3c(CN4CCCCC4)ccc3C2c2ccccc2)c(C)c1 (stereo not shown) [Example 16, 4-methoxy-N,2,6-trimethyl-N-(2-(2-oxo-2-(1-phenyl-6-(piperidin-1-ylmethyl)-3,4-dihydropyrrolo[1,2-a]pyrazin-2(1H)-yl)ethoxy)ethyl)benzenesulfonamide]
102 | 102 | COc1cc(C)c(S(=O)(=O)N(C)CCOCC(=O)N2CCn3c(CN(C)C)ccc3C2c2cccs2)c(C)c1 (stereo not shown) [Example 17, N-(2-(2-(6-((dimethylamino)methyl)-1-(thiophen-2-yl)-3,4-dihydropyrrolo[1,2-a]pyrazin-2(1H)-yl)-2-oxoethoxy)ethyl)-4-methoxy-N,2,6-trimethylbenzene-sulfonamide]
 | 102 | O=C(C[C@@H](NS(=O)(=O)c1ccc2ccccc2c1)c1ccccc1)N1CCn2c(CN3CCCCC3)nnc2C1 [Example 164, (R)-N-(3-oxo-1-phenyl-3-(3-(piperidin-1-ylmethyl)-5,6-dihydro-[1,2,4]triazolo[4,3-a]pyrazin-7(8H)-yl)propyl)naphthalene-2-sulfonamide]
